According to patent publication US20240391950A1, “PEPTIDE CROSSLINKING AGENT AND CROSSLINKED PEPTIDE WHICH IS CROSSLINKED USING SAID CROSSLINKING AGENT” (Kagoshima University, priority 2020, published 2024):
Blank lines part the entries; values can stand above or below the molecule they belong to. Starred links: 1 amine or outer side, 2 acyl side, 3 side chain; linkers in the order of their positions; H or OH if unused. Positions of bridges follow the written chain, without caps; N, C: chain ends. Residues, ends and D or L forms follow the SMILES beside them. X4 = C#CCON=C(C)C([*:1])[*:2]

How the values were obtained:
α-chymotrypsin = molecular target: T1, α-chymotrypsin (Bos taurus, UniProt P00766); test: Resistance to α-chymotrypsin digestion followed by reverse-phase HPLC; format: in vitro ADME, bovine; conditions: for change of HPLC peak after addition of α-chymotrypsin: α-chymotrypsin 1/10 weight ratio, 37° C.; for resistance to protease (FIG. 10): α-chymotrypsin
T1 construct: purchased MP Biomedicals; host or cells: bovine pancreas
Method: For evaluation of stability of a peptide by crosslinking reaction, resistivity of α-chymotrypsin (derived from bovine pancreas, manufactured by MP Biomedicals) to protease decomposition was evaluated with oxytocin crosslinked by 2,2-dichloroacetophenone. Crosslinking of oxytocin by 2,2-dichloroacetophenone was performed in the same manner with replacement of 1.1-dichloroacetone in Example 11 by 2,2-dichloroacetophenone, and an objective product was taken by reverse-phase HPLC. Specifically, 10 mg (10 μmol) of oxytocin acetate was dissolved in 3 mL of a 0.1 M HEPES hydrochloric acid buffer (pH 8.0), the solution was mixed with 2 mL of a 0.1 M HEPES hydrochloric acid buffer (pH 8.0) containing 57.4 mg (200 μmol) of TCEP-HCl, and the mixture was stirred for 1 hour. Next, 8.3 mg (44 μmol) of 2,2-dichloroacetophenone dissolved in 0.44 mL of acetonitrile was added and mixed, and the mixture was stirred at room temperature for 1 hour. The resulting sample was applied to an InertSustain C18 column (5 μm, 14×250 mm, manufactured by GL Sciences Inc.) (flow rate 5 mL/min) connected to LC-Forte (manufactured by YMC). The elution was performed at a linear gradient from 4% to 70% (containing 0.1% formic acid). An objective product was taken, and freeze-dried after removal of acetonitrile at a negative pressure.
Evaluation was made with oxytocin-OX and an oxytocin SH reduced form (oxytocin-RD) shown by the following formula A3 used as comparison subjects. In other words, an oxytocin solution obtained by dissolution in a 0.1 M phosphate buffer (pH 7.0) at 0.5 mg/mL was adopted as oxytocin-OX, and a substance obtained after a lapse of 30 minutes from addition of an oxytocin solution obtained by dissolution in a 0.1 M phosphate buffer (pH 7.0) containing 0.5 mg/mL TCEP, at 0.5 mg/mL, was adopted as oxytocin-RD. To 200 μL of each of these solutions was 10 μL ( 1/10 on weight ratio to oxytocin) of 1 mg/mL α-chymotrypsin, and the resultant was subjected to incubation at 37° C. and analysis by reverse-phase HPLC. In the case of blank, a phosphate buffer was added instead of α-chymotrypsin.
A substance obtained after a lapse of 30 minutes from dissolution of 0.5 mg/mL oxytocin-DP purified, in a 0.1 M phosphate buffer (pH 7.0) containing 0.5 mg/mL TCEP, was adopted as a sample, and similarly α-chymotrypsin was added and analysis by reverse-phase HPLC was made.

human IgG1 = human IgG1 (Homo sapiens, UniProt P01857); test: SPR (BIAcore T200) measurement of binding affinity of crosslinked cyclic peptide to immobilized IgG
Method: The affinity analysis was performed by the following method. First, a CM5 sensor chip was installed on BIAcoreT200 (GE healthcare), and 0.4 M 1-ethyl-3-(3-dimethylaminopropyl)carbodiimide (EDC) and a 0.1 M sulfo-N-hydroxysuccinimide (sulfo-NHS) solution mixed in equivalent amounts were injected to the sensor chip at a flow rate of […], to thereby activate the sensor chip. Thereafter, IgG was immobilized onto the sensor chip under a condition of a pH of 5.5 (10 mM Na acetate). An HBS-EP buffer (10 mM HEPES, 150 mM NaCl, 0.005% Tween 20, 3 mM EDTA, pH 7.4) was used in measurement, and 15.625, 31.2, 62.5, 125, 250, and 500 nM of peptides were each injected at a flow rate of […] for 180 seconds, to thereby monitor binding reaction. When dissociation reaction was measured, only the buffer was injected for 600 seconds. The interaction parameter was analyzed with BIAevaluation T100 software.
IgG-binding peptide derivatives compared and evaluated are illustrated in FIG. 1.

human serum-derived IgG = test: Dynamic binding capacity (DBC) measurement and alkali resistance evaluation of peptide-immobilized column; conditions: for Dynamic binding capacity: 10% breakthrough
Method: Five mL of 1 mM hydrochloric acid was sent to an NHS-activated prepacked column having a volume of 1 mL, and an isopropanol solution in the column was removed. Next, a 10.0 mg/mL peptide solution (dissolved in 100 μL of DMSO) was diluted with a coupling solution (20 mM carbonate buffer, 50 mM sodium chloride, pH 8.3) by 10-fold, 1 mL of the dilution liquid was sent, and immobilization was performed at room temperature for 4 hours. Thereafter, unreacted NHS was blocked by 5 mL of 1 M Tris (pH 8.0) at room temperature for 1 hour. Thereafter, washing with 5 mL of an aqueous 0.1 N NaOH solution was made. Finally, 10 mL of a PBS solution (20 mM phosphate buffer, 150 mM sodium chloride, pH 7.4) was sent, and used in chromatography evaluation.
A column where the amount of immobilization of a peptide was 1 mg was produced by the same method as described above. The column produced was equilibrated with PBS, and 1 mg/mL human serum-derived IgG (manufactured by Sigma-Aldrich Co. LLC) dissolved in PBS was sent at a flow rate of 1 mL/min (retention time 1 min). DBC was indicated as one determined from the amount of a protein added at the time of point where 10% of the absorbance at 280 nm of the sample added was leaked.
Next, 5 mL of an aqueous 0.1 N sodium hydroxide solution was sent to the 1-mL column where 1 mg of the peptide was immobilized. Thereafter, washing with PBS was performed. This cycle was repeated 30 times for the 1,1-dichloroacetone-crosslinked cyclic peptide, and was repeated 10 times for the 1,1-dichloropinacolin-crosslinked cyclic peptide. DBC measurement was performed at a flow rate of 1 mL/min at the 1st to 5th and 10th times of the cycles, and further performed at the 20th and 30th times of the cycles with respect to the 1,1-dichloroacetone-crosslinked cyclic peptide, and thus alkali resistance was evaluated. The variation in DBC was determined based on the measurement results under the assumption that DBC immediately after column production was 100% according to Table 2.
Five mL of a 0.1 M sodium hydroxide solution was sent to the produced 1-mL column where the amount of immobilization of a peptide was 1 mg, and thereafter washing with 5 mL of PBS was performed. These operations were defined as one cycle and treatment of washing with aqueous NaOH solution/washing with PBS was performed 1 to 30 times, and thereafter DBC measurement was performed at a flow rate of 1 mL/min at the intended number of times (1, 2, 3, 4, 5, 10, 20, 30 times).

human IgG1 (human) [1] = test: SPR, same affinity measurement as in Example 4
human IgG1 (human) [2] = test: SPR, BIAcore T200, IgG immobilised on CM5 chip
[3] = molecular target: human serum-derived IgG (manufactured by Sigma-Aldrich Co. LLC); test: peptide-immobilised column, human serum IgG, 10% breakthrough
human IgG1 (human) [4] = test: SPR, BIAcore T200, IgG immobilised on CM5 chip, peptide as analyte
[5] = number of washing times with 0.1 N NaOH: 1
[6] = 0.1 M phosphate buffer pH 7.0 containing 0.5 mg/mL TCEP
[7] = in the presence of reducing agent TCEP

Chain of human IgG1 (P01857 1-328 limits assumed): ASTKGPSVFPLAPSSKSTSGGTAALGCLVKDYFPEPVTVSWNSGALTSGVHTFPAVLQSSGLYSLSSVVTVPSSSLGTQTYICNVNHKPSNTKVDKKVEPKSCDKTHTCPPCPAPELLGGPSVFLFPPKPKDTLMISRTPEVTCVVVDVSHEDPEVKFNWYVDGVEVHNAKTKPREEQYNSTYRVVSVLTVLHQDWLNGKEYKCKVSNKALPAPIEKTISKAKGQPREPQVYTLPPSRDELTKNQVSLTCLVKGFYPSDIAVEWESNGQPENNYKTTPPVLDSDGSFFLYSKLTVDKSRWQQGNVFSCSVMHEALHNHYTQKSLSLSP

change of HPLC peak after addition of α-chymotrypsin (α-chymotrypsin; 0.1 M phosphate buffer pH 7.0, no TCEP, 15 minutes to 2 hours): no change of any peak was observed | resistance to protease (FIG. 10) (α-chymotrypsin; no TCEP): high protease resistance
Molecule: CCC(C)C1NC(=O)C(Cc2ccc(O)cc2)NC(=O)C(N)CSSCC(C(=O)N2CCCC2C(=O)NC(CC(C)C)C(=O)NCC(N)=O)NC(=O)C(CC(N)=O)NC(=O)C(CCC(N)=O)NC1=O (stereo not drawn) [oxytocin-OX, Cys-Tyr-Ile-Gln-Asn-Cys-Pro-Leu-Gly-NH2]

change of HPLC peak after addition of α-chymotrypsin (α-chymotrypsin; [6]): no decrease was observed | resistance to protease (FIG. 10) (α-chymotrypsin; [7]): high resistance
Molecule: CCC(C)C1NC(=O)C(Cc2ccc(O)cc2)NC(=O)C(N)CSC(C(=O)c2ccccc2)SCC(C(=O)N2CCCC2C(=O)NC(CC(C)C)C(=O)NCC(N)=O)NC(=O)C(CC(N)=O)NC(=O)C(CCC(N)=O)NC1=O (stereo not drawn) [oxytocin-DP]

resistance to protease (FIG. 10) (α-chymotrypsin; [7]): extremely low
Molecule: CCC(C)C(NC(=O)C(Cc1ccc(O)cc1)NC(=O)C(N)CS)C(=O)NC(CCC(N)=O)C(=O)NC(CC(N)=O)C(=O)NC(CS)C(=O)N1CCCC1C(=O)NC(CC(C)C)C(=O)NCC(N)=O (stereo not drawn) [oxytocin-RD]
change of HPLC peak after addition of α-chymotrypsin (α-chymotrypsin; [6]): any peak disappeared after only 10 minutes

More lines, now with the values behind:

Molecule: CC(C)C[C@@H]1NC(=O)[C@H](CCC(=O)O)NC(=O)CNC(=O)[C@H](CCCNC(=N)N)NC(=O)[C@H](Cc2c[nH]cn2)NC(=O)[C@H](Cc2ccc(O)cc2)NC(=O)[C@H](C)NC(=O)[C@@H](NC(=O)[C@H](CC(=O)O)NC(=O)[C@@H]2CCCN2C(=O)CNC(=O)[C@H](CO)NC(=O)CNC(=O)CNC(=O)[C@H](CO)NC(=O)CN)CSSC[C@@H](C(=O)N[C@H](C(=O)N[C@@H](Cc2ccccc2)C(=O)N[C@@H](Cc2c[nH]cn2)C(=O)O)[C@@H](C)O)NC(=O)[C@H](Cc2c[nH]c3ccccc23)NC(=O)[C@H](C(C)C)NC1=O [IgG-BP-LongGS Original] (H-GSGGSGPDCAYHRGELVWCTFH-OH; disulfide 9-19; N-terminus and C-terminus assumed)
kd (human IgG1; SPR, IgG immobilized on CM5 chip, HBS-EP pH 7.4): 0.019 | ka (human IgG1; SPR, IgG immobilized on CM5 chip, HBS-EP pH 7.4, in M-1 s-1 (unit assumed)): 2.37E+06 | change in amount of binding of the antibody to the column by alkali washing (FIG. 2) (human serum-derived IgG; 0.1 M NaOH washing/PBS washing, 1 to 30 cycles): reduced by alkali washing | value of DBC, by itself, of peptide-immobilized column (human serum-derived IgG; before repeated alkali washing, 1 mL/min): 17.24 mg/mL | initial value of DBC of peptide column (human serum-derived IgG; initial value, 1 mg peptide on 1-mL column, 1 mL/min): 17.24 mg/mL-column | Variation (%) in dynamic binding capacity (human serum-derived IgG; [5]): 100.0% | Variation (%) in maximum binding capacity (human serum-derived IgG; [5]): 100.0% | Maximum binding capacity (human serum-derived IgG; number of washing times with 0.1 N NaOH: 1, 1 mg peptide on 1-mL column): 12.37 mg | Dynamic binding capacity (human serum-derived IgG; number of washing times with 0.1 N NaOH: 1, 1 mL/min): 17.24 mg/mL | Variation (%) in maximum binding capacity (human serum-derived IgG; number of washing times with 0.1 N NaOH: 5): 49.2% | Maximum binding capacity (human serum-derived IgG; number of washing times with 0.1 N NaOH: 5, 1 mg peptide on 1-mL column): 6.09 mg | Dynamic binding capacity (human serum-derived IgG; number of washing times with 0.1 N NaOH: 5, 1 mL/min): 8.74 mg/mL | Variation (%) in dynamic binding capacity (human serum-derived IgG; number of washing times with 0.1 N NaOH: 5, listed as IgG-BP-LGS): 50.7% | Variation (%) in dynamic binding capacity (human serum-derived IgG; number of washing times with 0.1 N NaOH: 5, listed as original IgG-binding peptide-immobilized column having a disulfide bond): ≤ 50%

Molecule: C#CCON=C(C)C1SC[C@H](NC(=O)[C@H](CC(=O)O)NC(=O)[C@@H]2CCCN2C(=O)CNC(=O)[C@H](CO)NC(=O)CNC(=O)CNC(=O)[C@H](CO)NC(=O)CN)C(=O)N[C@@H](C)C(=O)N[C@@H](Cc2ccc(O)cc2)C(=O)N[C@@H](Cc2c[nH]cn2)C(=O)N[C@@H](CCCNC(=N)N)C(=O)NCC(=O)N[C@@H](CCC(=O)O)C(=O)N[C@@H](CC(C)C)C(=O)N[C@@H](C(C)C)C(=O)N[C@@H](Cc2c[nH]c3ccccc23)C(=O)N[C@H](C(=O)N[C@H](C(=O)N[C@@H](Cc2ccccc2)C(=O)N[C@@H](Cc2c[nH]cn2)C(N)=O)[C@@H](C)O)CS1 (stereo partly drawn) (H-GSGGSGPDCAYHRGELVWCTFH-NH2; linker 9-19 via X4; C-terminus assumed)
reduction of affinity as compared with the original peptide (human IgG1; Kd relative to original disulfide IgG-binding peptide): about 42 fold | Kd (human IgG1; SPR, human IgG1): 334 nM

Molecule: CCC(C)C1NC(=O)C(Cc2ccc(O)cc2)NC(=O)C(N)CS/C(=C/c2ccccc2)SCC(C(=O)N2CCCC2C(=O)NC(CC(C)C)C(=O)NCC(N)=O)NC(=O)C(CC(N)=O)NC(=O)C(CCC(N)=O)NC1=O (stereo not drawn) [oxytocin-DP-RDH]
change of HPLC peak after addition of α-chymotrypsin (α-chymotrypsin; [6]): no decrease was observed | resistance to protease (FIG. 10) (α-chymotrypsin; [7]): high resistance

B1: alkyne functional group-introduced, crosslinked and cyclized peptide (1,1-dichloroacetone-crosslinked IgG-BP-LongGS reacted with O-2-Propynylhydroxylamine) (peptide)
peptide: GSGGSGPDCAYHRGELVWCTFH
modifications: not fully specified; the two Cys thiols crosslinked with 1,1-dichloroacetone; the crosslink reacted with O-2-Propynylhydroxylamine hydrochloride to introduce an alkyne group
Kd (human IgG1 (human) [1]): 334 nM | fold reduction of affinity against the original peptide (human IgG1 (human) [1]): 42 fold

B2: 1,3-dichloroacetone-crosslinked cyclic peptide of IgG-BP-LongGS (peptide)
peptide: GSGGSGPDCAYHRGELVWCTFH
modifications: the thiol groups of the two Cys residues crosslinked with 1,3-dichloroacetone in place of the disulfide bond
fold reduction of affinity against the original peptide (human IgG1 (human) [2]): 500 fold | initial value of DBC [3]: 2.3 mg/mL-column | Kd (human IgG1 (human) [4]): 4900 nM

B3: 2,2-dichloroacetophenone-crosslinked cyclic peptide of IgG-BP-LongGS (peptide)
peptide: GSGGSGPDCAYHRGELVWCTFH
modifications: the thiol groups of the two Cys residues crosslinked with 2,2-dichloroacetophenone in place of the disulfide bond; Fmoc removed
Kd (human IgG1 (human) [4]): 6.4 nM
